Laboratory results reported in the NIST ThermoML archive (doi:10.1021/je500153g).
Numbers after ± are expanded uncertainties.

Key:
[1] = 101 kPa, Liquid; for viscosity: Concentric cylinders viscometry; for mass density: Vibrating tube method
[2] = xn = mol fraction of the nth substance listed; conditions: 101 kPa, Liquid; for viscosity: Concentric cylinders viscometry; for mass density: Vibrating tube method

Structure (SMILES) | viscosity ([1]; 303.15 K) [mPa·s] | mass density ([1]; 303.15 K) [kg/m3] | viscosity ([1]; 313.15 K) [mPa·s] | mass density ([1]; 313.15 K) [kg/m3] | viscosity ([1]; 323.15 K) [mPa·s] | mass density ([1]; 323.15 K) [kg/m3] | viscosity ([1]; 333.15 K) [mPa·s] | mass density ([1]; 333.15 K) [kg/m3] | viscosity ([1]; 343.15 K) [mPa·s] | mass density ([1]; 343.15 K) [kg/m3] | viscosity ([2]; 303.15 K, x2 = 0) [mPa·s] | mass density ([2]; 303.15 K, x2 = 0) [kg/m3] | viscosity ([2]; 313.15 K, x2 = 0) [mPa·s] | mass density ([2]; 313.15 K, x2 = 0) [kg/m3] | viscosity ([2]; 323.15 K, x2 = 0) [mPa·s] | mass density ([2]; 323.15 K, x2 = 0) [kg/m3] | viscosity ([2]; 333.15 K, x2 = 0) [mPa·s] | mass density ([2]; 333.15 K, x2 = 0) [kg/m3] | viscosity ([2]; 343.15 K, x2 = 0) [mPa·s] | mass density ([2]; 343.15 K, x2 = 0) [kg/m3] | also measured
CCC(C)O (stereo not given) [butan-2-ol] | 2.51 ± 0.02 | 799.3 ± 0.4 | 1.78 ± 0.02 | 790.7 ± 0.4 | 1.31 ± 0.01 | 781.7 ± 0.4 | 0.99 ± 0.01 | 772.1 ± 0.4 | 0.78 ± 0.01 | 762 ± 0.4 |  |  |  |  |  |  |  |  |  |  | 
CCC(C)O (stereo not given) [butan-2-ol] + O=S1(=O)CCCC1 |  |  |  |  |  |  |  |  |  |  | 2.51 ± 0.02 | 799.3 ± 0.4 | 1.78 ± 0.02 | 790.7 ± 0.4 | 1.31 ± 0.01 | 781.7 ± 0.4 | 0.99 ± 0.01 | 772.1 ± 0.4 | 0.78 ± 0.01 | 762 ± 0.4 | 
OCCOCCO [diethylene glycol] | 22.5 ± 0.2 | 1110 ± 0.5 | 14.9 ± 0.1 | 1103 ± 0.5 | 10.4 ± 0.1 | 1095.9 ± 0.5 | 7.6 ± 0.06 | 1088.5 ± 0.5 | 5.75 ± 0.05 | 1081.1 ± 0.5 |  |  |  |  |  |  |  |  |  |  | 
OCCOCCO [diethylene glycol] + O=S1(=O)CCCC1 |  |  |  |  |  |  |  |  |  |  | 22.5 ± 0.2 | 1110 ± 0.5 | 14.9 ± 0.1 | 1103 ± 0.5 | 10.4 ± 0.1 | 1095.9 ± 0.5 | 7.6 ± 0.06 | 1088.5 ± 0.5 | 5.75 ± 0.05 | 1081.1 ± 0.5 | 
CC(C)O [propan-2-ol] | 1.78 ± 0.02 | 777.5 ± 0.4 | 1.34 ± 0.01 | 768.8 ± 0.4 | 1.03 ± 0.01 | 759.7 ± 0.4 | 0.79 ± 0.01 | 750 ± 0.4 | 0.64 ± 0.01 | 739.5 ± 0.4 |  |  |  |  |  |  |  |  |  |  | 
CC(C)O [propan-2-ol] + O=S1(=O)CCCC1 |  |  |  |  |  |  |  |  |  |  | 1.78 ± 0.02 | 777.5 ± 0.4 | 1.34 ± 0.01 | 768.8 ± 0.4 | 1.03 ± 0.01 | 759.7 ± 0.4 | 0.79 ± 0.01 | 750 ± 0.4 | 0.64 ± 0.01 | 739.5 ± 0.4 | 
O=S1(=O)CCCC1 [sulfolane] | 10.4 ± 0.1 | 1262.9 ± 0.6 | 8.07 ± 0.07 | 1254.1 ± 0.6 | 6.45 ± 0.06 | 1245.2 ± 0.6 | 5.22 ± 0.05 | 1236.6 ± 0.6 | 4.32 ± 0.04 | 1228.1 ± 0.6 |  |  |  |  |  |  |  |  |  |  | 
O=S1(=O)CCCC1 [sulfolane] + OCCOCCOCCO |  |  |  |  |  |  |  |  |  |  |  |  |  |  |  |  |  |  |  |  | viscosity ([2]; 303.15 K, x1 = 1): 10.4 ± 0.1 mPa·s; mass density ([2]; 303.15 K, x1 = 1): 1262.9 ± 0.6 kg/m3; viscosity ([2]; 313.15 K, x1 = 1): 8.07 ± 0.07 mPa·s; mass density ([2]; 313.15 K, x1 = 1): 1254.1 ± 0.6 kg/m3; viscosity ([2]; 323.15 K, x1 = 1): 6.45 ± 0.06 mPa·s; mass density ([2]; 323.15 K, x1 = 1): 1245.2 ± 0.6 kg/m3; viscosity ([2]; 333.15 K, x1 = 1): 5.22 ± 0.05 mPa·s; mass density ([2]; 333.15 K, x1 = 1): 1236.6 ± 0.6 kg/m3; viscosity ([2]; 343.15 K, x1 = 1): 4.32 ± 0.04 mPa·s; mass density ([2]; 343.15 K, x1 = 1): 1228.1 ± 0.6 kg/m3
OCCOCCOCCO [triethylene glycol] | 29.5 ± 0.3 | 1116.5 ± 0.5 | 19.3 ± 0.2 | 1108.9 ± 0.5 | 13.3 ± 0.1 | 1101.1 ± 0.5 | 9.58 ± 0.08 | 1093.4 ± 0.5 | 7.16 ± 0.06 | 1085.5 ± 0.5 |  |  |  |  |  |  |  |  |  |  | 
